Assay results: patent US20180273528A1 (LES LABORATOIRES SERVIER, priority 2015, published 2018)

Tests used:
DYRK1A [1] = biological target: T1, DYRK1A (Homo sapiens, UniProt Q13627); assay: Kinase TR-FRET assay, DYRK1A; assay type: biochemical; design: full-length, wild-type human DYRK1A (NM_001396) with an HA tag; expressed in transfected cells; host or cells: human U2-OS osteosarcoma cells, transient transfection of a pcDNA3.1 plasmid; conditions: full-length human kinase, 10 μM ATP
Experimental: (§1) Inhibition of the enzymatic activity of human kinases was evaluated in a Time-Resolved Fluorescence Resonance Energy Transfer (TR-FRET) assay in 384-well reaction plates. […] Test compounds of the invention were added in reaction buffer at a range of concentrations from 0.1 nM to 30 μM. Following addition of EDTA (Sigma E7889, 10 mM) to stop the reaction, Europium-labelled mouse monoclonal antibody recognizing phospho-Thr232 in MBP (Perkin Elmer TRF0201, 1 nM) was added.

[2] = biological target: T2, His-TEV-DYRK1A Kinase domain (aa127-485) (Homo sapiens, UniProt Q13627); assay: Kinase ADP assay (ADP Hunter), DYRK1A kinase domain; assay type: biochemical; conditions: 20 μM ATP
T2 construct: His-TEV-DYRK1A Kinase domain (aa127-485); His tag (N); TEV protease cleavage site (N)
Method in brief: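 Compounds incubated 10 min at 30 °C with 20 nM enzyme, 40 μM peptide substrate and 20 μM ATP in pH 7.4 Hepes buffer with 10 mM MgCl2. ADP formed detected by ADP Hunter Plus reagents after 20 min at 30 °C, fluorescence read at 590 nm.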

DYRK1A [3] = biological target: T1, DYRK1A; assay: Cellular DYRK1 autophosphorylation assay in U2-OS cells; assay type: cell-based; design: full-length, wild-type human DYRK1A (NM_001396) with an HA tag; expressed in transfected cells; host or cells: human U2-OS osteosarcoma cells, transient transfection of a pcDNA3.1 plasmid; conditions: U2-OS cells transfected with HA-tagged human DYRK1A, 5 hours exposure; read-out: IC50 (μM) P-Ser520-Dyrk1A -Cell assay
Experimental: On day 2, cells were exposed to a range of concentrations of the test compounds of the invention for 5 hours. […] The relative levels of phospho-Ser520-DYRK1A were assayed using either western blotting or the Mesoscale ELISA platform. For analysis by western blot, lysates were diluted into Laemmli sample buffer (Bio-Rad) containing 5% v/v β-mercaptoethanol, heated for 5 min at 95° C., and resolved on Tris-glycine gels or NuPage Bis-Tris gels (Novex; Invitrogen). Biotinylated molecular weight standards (Cell Signaling Technology) were included in all gels. Proteins were transferred to nitrocellulose membranes (Hybond, ECL; Amersham), which were blocked in Tris-buffered saline/0.1% tween 20 (TBST) containing 5% milk, and probed at 4° C. overnight with anti-phospho-Ser520-DYRK1A antibody (Eurogentec SE6974-75; 0.23 μg/ml in 5% BSA) or anti DYRK1A antibody (Abnova H00001859; 0.5 μg/ml in 5% milk). Peroxidase-conjugated secondary antibodies were diluted into 5% milk and applied to membranes for 1 h at 20° C. Chemiluminescence detection was performed using the ECL plus western blotting detection kit (Amersham) and was recorded on ECL plus hyperfilm (Amersham). Blots were scanned using the Bio-Rad GS-800 calibrated densitometer and quantitative analysis of western blots was performed using TotalLab software (Amersham). IC50 values for inhibition of phospho-Ser520-DYRK1A were calculated from dose-response curves plotting the ratio between phospho-Ser520-DYRK1A and total DYRK1A signals at each concentration. […] Anti-phospho-Ser520-DYRK1A antibody (Eurogentec SE6974-75; […]) and anti DYRK1A antibody (Abnova H00001859; 3 μg/ml) was then added for 1 hour at RT, followed by addition of Sulfa-TAG anti-rabbit detection antibody (ref MSD R32AB; 1 μg/ml) and Sulfa-TAG anti-mouse detection antibody (ref MSD R32-AC-1; 1 μg/ml). After a further 1 hour, Read Buffer was added and plates were read on the Sector Imager 2400 (Mesoscale). IC50 values for inhibition of phospho-Ser520-DYRK1A were calculated from dose-response curves.

DYRK1B = biological target: T3, DYRK1B (Homo sapiens, UniProt Q9Y463); assay: Kinase TR-FRET assay, DYRK1B; assay type: biochemical; conditions: full-length human kinase, 10 μM ATP
T3 construct: full-length human kinases from Carna Biosciences; purchased Carna Biosciences 04-131
Experimental: as §1

T3 sequence (Q9Y463 whole entry): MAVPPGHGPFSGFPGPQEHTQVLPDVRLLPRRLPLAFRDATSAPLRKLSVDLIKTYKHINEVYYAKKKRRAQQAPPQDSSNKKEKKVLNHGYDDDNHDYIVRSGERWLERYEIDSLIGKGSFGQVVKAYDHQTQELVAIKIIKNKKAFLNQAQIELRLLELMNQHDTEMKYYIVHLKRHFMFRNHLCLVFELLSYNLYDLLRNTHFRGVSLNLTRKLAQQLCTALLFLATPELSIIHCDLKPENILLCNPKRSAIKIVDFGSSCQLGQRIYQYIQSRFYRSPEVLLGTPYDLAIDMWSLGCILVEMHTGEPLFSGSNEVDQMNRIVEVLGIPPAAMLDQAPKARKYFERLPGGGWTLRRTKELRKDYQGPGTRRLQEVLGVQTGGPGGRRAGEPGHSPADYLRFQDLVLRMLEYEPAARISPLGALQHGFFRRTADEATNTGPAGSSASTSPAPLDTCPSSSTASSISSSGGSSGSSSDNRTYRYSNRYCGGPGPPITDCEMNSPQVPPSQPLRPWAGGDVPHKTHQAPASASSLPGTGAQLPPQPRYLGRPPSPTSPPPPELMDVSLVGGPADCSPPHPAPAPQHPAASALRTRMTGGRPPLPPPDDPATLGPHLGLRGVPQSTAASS

SMILES	IC50 (DYRK1A [1]) [µM]	IC50 [2] [µM]	IC50 (DYRK1A [3]) [µM]	IC50 (DYRK1B) [µM]
COc1cc(Cl)ccc1Cn1c(C)nc2ccc(-c3cc(N)nc(N)c3)nc21 [Example 39, 4-[3-(4-chloro-2-methoxybenzyl)-2-methyl-3H-imidazo[4,5-b]pyridin-5-yl]pyridine-2,6-diamine]	0.245	0.045	–	–
Cc1nc2ccc(-c3cc(N)nc(N)c3)nc2n1Cc1ccc(C#N)cc1 [Example 40, 4-{[5-(2,6-diaminopyridin-4-yl)-2-methyl-3H-imidazo[4,5-b]pyridin-3-yl]methyl}benzonitrile]	0.154	0.187	–	–
Cc1nc2ccc(-c3cc(N)nc(N)c3)nc2n1Cc1ccc(OC(F)F)cc1 [Example 43, 4-{3-[4-(difluoromethoxy)benzyl]-2-methyl-3H-imidazo[4,5-b]pyridin-5-yl}pyridine-2,6-diamine]	0.116	0.109	–	–
CSCCCn1c(C)nc2ccc(-c3cc(N)nc(N)c3)nc21 [Example 44, 4-{2-methyl-3-[3-(methylsulfanyl)propyl]-3H-imidazo[4,5-b]pyridin-5-yl}pyridine-2,6-diamine]	0.019	0.011	0.023	–
Cc1nn(C)c(C)c1Cn1c(C)nc2ccc(-c3cc(N)nc(N)c3)nc21 [Example 45, 4-{2-methyl-3-[(3,5-trimethyl-1H-pyrazol-4-yl)methyl]-3H-imidazo[4,5-b]pyridin-5-yl}pyridine-2,6-diamine]	0.177	0.055	–	–
Cc1nc2ccc(-c3cc(N)nc(N)c3)nc2n1Cc1cc(F)ccc1F [Example 46, 4-[3-(2,5-difluorobenzyl)-2-methyl-3H-imidazo[4,5-b]pyridin-5-yl]pyridine-2,6-diamine]	0.056	0.035	–	–
Cc1nc2ccc(-c3cc(N)nc(N)c3)nc2n1Cc1cccc(Cl)c1 [Example 48, 4-[3-(3-chlorobenzyl)-2-methyl-3H-imidazo[4,5-b]pyridin-5-yl]pyridine-2,6-diamine]	0.116	0.056	–	–
Cc1nc2ccc(-c3cc(N)nc(N)c3)nc2n1C(C)(C)c1ccccc1 [Example 60, 4-[2-methyl-3-(2-phenylpropan-2-yl)-3H-imidazo[4,5-b]pyridin-5-yl]pyridine-2,6-diamine]	0.149	0.51	–	–
Cc1nc2ccc(-c3cc(N)nc(N)c3)nc2n1C1CCCc2ccccc21 (centres unmarked) [Example 62, 4-[2-methyl-3-(1,2,3,4-tetrahydronaphthalen-1-yl)-3H-imidazo[4,5-b]pyridin-5-yl]pyridine-2,6-diamine]	0.166	0.781	–	–
CCC(c1ccccc1)n1c(C)nc2ccc(-c3cc(N)nc(N)c3)nc21 (centres unmarked) [Example 67, 4-[2-methyl-3-(1-phenylpropyl)-3H-imidazo[4,5-b]pyridin-5-yl]pyridine-2,6-diamine]	0.104	0.903	–	–
Cc1nc2ccc(-c3cc(N)nc(N)c3)nc2n1C1CC2CCC1C2 (centres unmarked) [Example 155, 4-[3-(bicyclo[2.2.1]hept-2-yl)-2-methyl-3H-imidazo[4,5-b]pyridin-5-yl]pyridine-2,6-diamine]	0.012	0.005	–	–
Cn1c(C(F)(F)F)nc2ccc(-c3cc(N)nc(N)c3)nc21 [Example 229, 4-[3-methyl-2-(trifluoromethyl)-3H-imidazo[4,5-b]pyridin-5-yl]pyridine-2,6-diamine]	0.061	0.081	–	–
CCCCn1c(C)nc2ccc(-c3cc(N)nc(NC(=O)COc4ccccc4)c3)nc21 [Example 230, N-[6-amino-4-(3-butyl-2-methyl-3H-imidazo[4,5-b]pyridin-5-yl)pyridin-2-yl]-2-phenoxyacetamide]	0.221	0.928	–	–
CCCCn1c(C)nc2ccc(-c3cc(N)nc(NC(=O)c4ccccc4Cl)c3)nc21 [Example 233, N-[6-amino-4-(3-butyl-2-methyl-3H-imidazo[4,5-b]pyridin-5-yl)pyridin-2-yl]-2-chlorobenzamide]	0.224	0.303	–	–
CCCCn1c(C)nc2ccc(-c3cc(N)nc(NC(=O)C4CCCCC4)c3)nc21 [Example 234, N-[6-amino-4-(3-butyl-2-methyl-3H-imidazo[4,5-b]pyridin-5-yl)pyridin-2-yl]cyclohexanecarboxamide]	0.09	0.236	–	–
CCCCn1c(C)nc2ccc(-c3ccnc(N)c3)nc21 [Example 236, 4-(3-butyl-2-methyl-3H-imidazo[4,5-b]pyridin-5-yl)pyridin-2-amine]	0.013	0.023	–	0.018

Molecules with a lower IC50 (DYRK1A [1]), results first:

IC50 (DYRK1A [1]) [µM]	IC50 [2] [µM]	IC50 (DYRK1A [3]) [µM]	IC50 (DYRK1B) [µM]	SMILES
0.009	0.05	–	0.02	Cc1nc2ccc(-c3ccnc(N)c3)nc2n1CC1CC1 [Example 238, 4-[3-(cyclopropylmethyl)-2-methyl-3H-imidazo[4,5-b]pyridin-5-yl]pyridin-2-amine]
0.008	0.014	–	0.016	CCc1nc2ccc(-c3cc(N)nc(N)c3)nc2n1C1Cc2ccccc2C1 [Example 158, 4-[3-(2,3-dihydro-1H-inden-2-yl)-2-ethyl-3H-imidazo[4,5-b]pyridin-5-yl]pyridine-2,6-diamine]
0.006	0.011	0.063	–	Cc1nc2ccc(-c3cc(N)nc(N)c3)nc2n1CCC1CC1 [Example 17, 4-[3-(2-cyclopropylethyl)-2-methyl-3H-imidazo[4,5-b]pyridin-5-yl]pyridine-2,6-diamine]
0.006	0.006	–	0.008	Cc1nc2ccc(-c3cc(N)nc(N)c3)nc2n1CCC(C)(C)C [Example 52, 4-[3-(3,3-dimethylbutyl)-2-methyl-3H-imidazo[4,5-b]pyridin-5-yl]pyridine-2,6-diamine]
0.004	0.01	–	0.012	Cn1c(C(F)F)nc2ccc(-c3cc(N)nc(N)c3)nc21 [Example 228, 4-[2-(difluoromethyl)-3-methyl-3H-imidazo[4,5-b]pyridin-5-yl]pyridine-2,6-diamine]
0.003	0.006	0.023	0.003	Cc1nc2ccc(-c3cc(N)nc(N)c3)nc2n1C1CCCCC1 [Example 54, 4-(3-cyclohexyl-2-methyl-3H-imidazo[4,5-b]pyridin-5-yl)pyridine-2,6-diamine]
0.002	0.009	0.07	0.003	Cc1nc2ccc(-c3cc(N)nc(N)c3)nc2n1C1Cc2ccccc2C1 [Example 12, 4-[3-(2,3-dihydro-1H-inden-2-yl)-2-methyl-3H-imidazo[4,5-b]pyridin-5-yl]pyridine-2,6-diamine]
0.002	0.013	0.108	–	CCC(CC)Cn1c(C)nc2ccc(-c3cc(N)nc(N)c3)nc21 [Example 18, 4-[3-(2-ethylbutyl)-2-methyl-3H-imidazo[4,5-b]pyridin-5-yl]pyridine-2,6-diamine]
0.002	0.007	–	–	COc1ccccc1CCCn1c(C)nc2ccc(-c3cc(N)nc(N)c3)nc21 [Example 69, 4-{3-[3-(2-methoxyphenyl)propyl]-2-methyl-3H-imidazo[4,5-b]pyridin-5-yl}pyridine-2,6-diamine]
